Reference: ChEMBL document CHEMBL1139739, “Inhibition of Tpl2 kinase and TNFalpha production with quinoline-3-carbonitriles for the treatment of rheumatoid arthritis” (Bioorg Med Chem Lett, 2006)
Calls of active or inactive are those of the source. The rule behind the calls is not given here.

Tests used:
[1] = target: Mitogen-activated protein kinase kinase kinase 8 (Homo sapiens, UniProt P41279); assay: Inhibition of Tpl2 kinase by ELISA
Monocyte [2] = assay: Inhibition of LPS-induced TNFalpha production in human monocytes by ELISA; assay type: functional
Blood = assay: Inhibition of LPS-induced TNFalpha production in human whole blood by ELISA; assay type: functional
Mus musculus [3] = assay: Inhibition of LPS/D-gal-induced TNFalpha production in C57B1/6 mouse at 50 mg/kg, ip; assay type: functional; conditions: C57B1/6, ip, route intraperitoneal
[4] = target: Dual specificity mitogen-activated protein kinase kinase 1 (Homo sapiens) (UniProt Q02750); assay: Inhibition of MEK
Sequence of Dual specificity mitogen-activated protein kinase kinase 1 (Homo sapiens) (Q02750 whole entry): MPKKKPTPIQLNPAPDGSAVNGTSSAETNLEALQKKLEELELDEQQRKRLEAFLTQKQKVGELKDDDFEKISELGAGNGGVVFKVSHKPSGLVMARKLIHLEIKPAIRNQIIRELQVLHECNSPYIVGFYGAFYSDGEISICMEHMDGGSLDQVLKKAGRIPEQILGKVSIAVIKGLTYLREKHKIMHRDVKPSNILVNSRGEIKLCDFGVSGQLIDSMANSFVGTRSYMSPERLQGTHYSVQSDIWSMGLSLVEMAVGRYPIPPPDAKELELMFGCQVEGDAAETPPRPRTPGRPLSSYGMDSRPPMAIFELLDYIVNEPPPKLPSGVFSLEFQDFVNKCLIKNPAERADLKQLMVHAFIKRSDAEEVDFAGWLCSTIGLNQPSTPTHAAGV

[5] = target: MAP kinase-activated protein kinase 2 (Homo sapiens) (UniProt P49137); assay: Inhibition of MK2
Sequence of MAP kinase-activated protein kinase 2 (Homo sapiens) (P49137 whole entry, looked up): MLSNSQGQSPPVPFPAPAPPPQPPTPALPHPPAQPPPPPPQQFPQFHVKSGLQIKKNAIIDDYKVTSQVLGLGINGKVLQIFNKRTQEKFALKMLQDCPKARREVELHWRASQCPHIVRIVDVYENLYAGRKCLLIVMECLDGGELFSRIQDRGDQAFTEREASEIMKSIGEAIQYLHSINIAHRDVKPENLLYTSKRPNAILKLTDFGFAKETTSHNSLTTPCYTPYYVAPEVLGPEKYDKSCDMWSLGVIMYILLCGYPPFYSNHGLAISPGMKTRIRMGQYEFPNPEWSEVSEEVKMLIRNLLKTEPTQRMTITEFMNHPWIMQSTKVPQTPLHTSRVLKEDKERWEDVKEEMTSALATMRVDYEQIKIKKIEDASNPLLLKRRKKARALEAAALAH

Mus musculus [6] = assay: Inhibition of LPS/D-gal-induced TNFalpha production in C57B1/6 mouse at 25 mg/kg, ip; assay type: functional; conditions: C57B1/6, ip, route intraperitoneal
Monocyte [7] = assay: Inhibition of MK2 phosphorylation in LPS-treated human monocytes; assay type: functional
[8] = target: CaM kinase II (Homo sapiens) (UniProt Q13557+Q13555+Q13554+Q9UQM7); assay: Inhibition of CAMK2; assay type: protein assay
Monocyte [9] = assay: Inhibition of IkappaBalpha phosphorylation in LPS-treated human monocytes; assay type: functional
[10] = target: Ribosomal protein S6 kinase beta-1 (Homo sapiens) (UniProt P23443); assay: Inhibition of S6 kinase
Sequence of Ribosomal protein S6 kinase beta-1 (Homo sapiens) (P23443 whole entry, looked up): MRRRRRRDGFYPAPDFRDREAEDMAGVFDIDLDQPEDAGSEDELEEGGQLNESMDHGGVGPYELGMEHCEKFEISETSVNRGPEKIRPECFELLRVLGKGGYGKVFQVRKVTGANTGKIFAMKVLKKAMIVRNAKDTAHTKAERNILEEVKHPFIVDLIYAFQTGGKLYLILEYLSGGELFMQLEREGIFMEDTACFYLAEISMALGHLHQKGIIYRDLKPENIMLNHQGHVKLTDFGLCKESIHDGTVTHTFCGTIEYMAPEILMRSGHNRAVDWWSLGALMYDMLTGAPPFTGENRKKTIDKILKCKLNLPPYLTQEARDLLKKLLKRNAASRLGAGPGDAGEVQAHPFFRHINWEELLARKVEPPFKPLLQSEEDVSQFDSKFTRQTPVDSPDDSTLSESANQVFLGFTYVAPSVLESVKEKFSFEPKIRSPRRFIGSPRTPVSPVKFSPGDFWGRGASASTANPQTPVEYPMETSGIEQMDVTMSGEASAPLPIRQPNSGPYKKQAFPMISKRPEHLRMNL

[11] = target: Proto-oncogene tyrosine-protein kinase Src (Homo sapiens) (UniProt P12931); assay: Inhibition of Src kinase
Sequence of Proto-oncogene tyrosine-protein kinase Src (Homo sapiens) (P12931 2-536 limits assumed): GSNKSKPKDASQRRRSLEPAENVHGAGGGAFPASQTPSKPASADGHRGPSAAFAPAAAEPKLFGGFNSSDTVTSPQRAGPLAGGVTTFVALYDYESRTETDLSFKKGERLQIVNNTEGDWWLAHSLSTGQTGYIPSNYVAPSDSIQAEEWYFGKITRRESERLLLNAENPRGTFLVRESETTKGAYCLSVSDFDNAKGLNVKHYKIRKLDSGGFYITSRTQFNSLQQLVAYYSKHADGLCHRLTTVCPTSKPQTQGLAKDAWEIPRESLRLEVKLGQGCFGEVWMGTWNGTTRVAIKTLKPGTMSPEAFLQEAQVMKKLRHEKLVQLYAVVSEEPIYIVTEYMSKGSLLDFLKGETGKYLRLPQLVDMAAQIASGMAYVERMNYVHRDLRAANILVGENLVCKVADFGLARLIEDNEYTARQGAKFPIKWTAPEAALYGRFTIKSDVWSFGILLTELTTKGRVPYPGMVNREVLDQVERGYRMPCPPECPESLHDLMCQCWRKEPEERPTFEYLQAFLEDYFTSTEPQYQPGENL

Monocyte [12] = assay: Inhibition of cJun phosphorylation in LPS-treated human monocytes; assay type: functional
Monocyte [13] = assay: Inhibition of p38 kinase phosphorylation in LPS-treated human monocytes; assay type: functional
[14] = target: Protein kinase C (PKC) (Homo sapiens) (UniProt O94806+P41743+P17252+P05129+Q05655+P05771+Q05513+Q02156+P24723+Q15139+Q04759); assay: Inhibition of PKC; assay type: protein assay

Sequence of Mitogen-activated protein kinase kinase kinase 8 (P41279 whole entry): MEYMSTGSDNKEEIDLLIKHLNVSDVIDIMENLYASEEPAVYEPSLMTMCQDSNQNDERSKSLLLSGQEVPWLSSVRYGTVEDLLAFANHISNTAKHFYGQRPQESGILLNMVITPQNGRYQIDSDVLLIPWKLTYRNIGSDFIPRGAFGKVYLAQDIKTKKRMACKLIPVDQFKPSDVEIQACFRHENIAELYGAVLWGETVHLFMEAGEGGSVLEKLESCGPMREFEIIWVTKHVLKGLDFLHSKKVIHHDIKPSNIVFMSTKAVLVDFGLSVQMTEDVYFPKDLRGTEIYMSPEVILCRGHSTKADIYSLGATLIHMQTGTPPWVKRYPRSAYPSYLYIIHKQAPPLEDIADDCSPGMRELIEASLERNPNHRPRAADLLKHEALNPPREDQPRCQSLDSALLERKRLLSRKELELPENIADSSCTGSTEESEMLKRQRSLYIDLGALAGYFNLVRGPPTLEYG

Q: `N#Cc1cccc(CNc2ccc3ncc(C#N)c(Nc4ccc(F)c(Cl)c4)c3c2)c1` was tested. Which IC50 [1] did it give?
A: 0.1 µM

Q: Which IC50 [1] does the source give for `N#Cc1cnc2ccc(NCc3ccccc3)cc2c1Nc1ccc(F)c(Cl)c1` here?
A: 0.21 µM

Q: For `N#Cc1cnc2ccc(NCc3ccccn3)cc2c1Nc1ccc(F)c(Cl)c1`, which IC50 [1] is on record?
A: 0.09 µM

Q: What does the source list for `Cc1ncn(CCN2CCOCC2)c1CNc1ccc2ncc(C#N)c(Nc3ccc(F)c(Cl)c3)c2c1`?
A: inhibitory concentration (Monocyte [2]): 0.7 µM; inhibitory concentration (Blood): 13.2 µM

Q: `N#Cc1cnc2ccc(NS(=O)(=O)c3ccccc3)cc2c1Nc1ccc(F)c(Cl)c1` was tested. Which IC50 [1] did it give?
A: 11.5 µM

Q: With `CCc1ncc(CNc2ccc3ncc(C#N)c(Nc4ccc(F)c(Cl)c4)c3c2)[nH]1` as the compound, how does the IC50 [1] read?
A: 0.64 µM

Q: Which IC50 [1] does the source give for `Cc1nc2ccc(NCc3cnc[nH]3)cc2c(Nc2ccc(F)c(Cl)c2)c1C#N` here?
A: 19 µM

Q: With `N#Cc1cnc2cc(OC(F)(F)F)c(NCc3cnc[nH]3)cc2c1Nc1ccc(F)c(Cl)c1` as the compound, how does the IC50 [1] read?
A: > 40 µM

Q: For `N#Cc1cnc2ccc(NCc3nccs3)cc2c1Nc1ccc(F)c(Cl)c1`, which inhibitory concentration (Monocyte [2]) is on record?
A: 0.6 µM

Q: And the inhibitory concentration (Blood)?
A: >20 µM

Q: How did the IC50 [1] turn out when `CC(Nc1ccc2ncc(C#N)c(Nc3ccc(F)c(Cl)c3)c2c1)c1ccccn1` (stereo not drawn) was run?
A: 0.06 µM

Q: With `N#Cc1cnc2ccc(NCCN3CCOCC3)cc2c1Sc1ccc(F)c(Cl)c1` as the compound, how does the IC50 [1] read?
A: > 10 µM

Q: Which IC50 [1] does the source give for `N#Cc1c(Nc2ccc(F)c(Cl)c2)c2cc(NCc3cnc[nH]3)ccc2[nH]c1=O` here?
A: > 40 µM

Q: Which IC50 [1] does the source give for `N#Cc1cnc2ccc(NCC3CCCN3)cc2c1Nc1ccc(F)c(Cl)c1` (stereo not drawn) here?
A: 30 µM

Q: How did the IC50 [1] turn out when `N#Cc1cnc2ccc(CCc3ccccc3)cc2c1Nc1ccc(F)c(Cl)c1` was run?
A: > 10 µM

Q: With `CC(C)Oc1cc2ncc(C#N)c(Nc3ccc(F)c(Cl)c3)c2cc1NCc1cnc[nH]1` as the compound, how does the IC50 [1] read?
A: > 40 µM

Q: Which IC50 [1] does the source give for `N#Cc1cnc2cnc(NCc3ccccc3)cc2c1Nc1ccc(F)c(Cl)c1` here?
A: 0.14 µM

Q: With `N#Cc1cnc2ccc(NCCN3CCOCC3)cc2c1Oc1ccc(F)c(Cl)c1` as the compound, how does the IC50 [1] read?
A: > 40 µM

Q: With `N#Cc1cnc2ccc(NCc3ccc(S(N)(=O)=O)cc3)cc2c1Nc1ccc(F)c(Cl)c1` as the compound, how does the IC50 [1] read?
A: 0.11 µM

Q: With `N#Cc1cnc2ccc(NCC3CCCO3)cc2c1Nc1ccc(F)c(Cl)c1` (stereo not drawn) as the compound, how does the IC50 [1] read?
A: 2.2 µM

Q: Which IC50 [1] does the source give for `CCN1CCC[C@H]1CNc1ccc2ncc(C#N)c(Nc3ccc(F)c(Cl)c3)c2c1` here?
A: 0.18 µM

Q: How did the inhibitory concentration (Monocyte [2]) turn out when `Cc1[nH]cnc1CNc1ccc2ncc(C#N)c(Nc3ccc(F)c(Cl)c3)c2c1` was run?
A: 0.4 µM

Q: And the IC50 [1]?
A: 0.003 µM

Q: And the inhibition in vivo at 50 mg/kg (Mus musculus [3])?
A: 84%

Q: What about the inhibitory concentration (Blood) of the same compound?
A: 7.9 µM

Q: With `N#Cc1cnc2ccc(NCc3cccc[n+]3[O-])cc2c1Nc1ccc(F)c(Cl)c1` as the compound, how does the inhibitory concentration (Monocyte [2]) read?
A: 1.7 µM

Q: What about the IC50 [1] of the same compound?
A: 0.011 µM

Q: And the inhibition in vivo at 50 mg/kg (Mus musculus [3])?
A: 54%

Q: And the inhibitory concentration (Blood)?
A: 7.8 µM

Q: Which results are given for `N#Cc1cnc2ccc(NCc3c[nH]cn3)cc2c1Nc1ccc(F)c(Cl)c1`?
A: IC50 [4]: 2.4 µM; Activity [5]: inactive; inhibition in vivo at 25 mg/kg (Mus musculus [6]): 70%; inhibitory concentration (Monocyte [2]): 0.46 µM; Inhibition (Monocyte [7]): >5 µM; Activity [8]: inactive; Inhibition (Monocyte [9]): >5 µM; Inhibition [10]: > 10 µM; Activity [11]: inactive; Inhibition (Monocyte [12]): 5 µM; Inhibition (Monocyte [13]): 2.11 µM; Inhibition [14]: > 10 µM; inhibitory concentration (Blood): 3.3 µM

Q: Which inhibitory concentration (Monocyte [2]) does the source give for `Cc1c(CNc2ccc3ncc(C#N)c(Nc4ccc(F)c(Cl)c4)c3c2)ncn1C` here?
A: 0.4 µM

Q: What about the IC50 [1] of the same compound?
A: 0.003 µM

Q: What about the inhibitory concentration (Blood) of the same compound?
A: 15.8 µM

Q: For `N#Cc1cnc2ccc(Nc3ccccc3)cc2c1Nc1ccc(F)c(Cl)c1`, which IC50 [1] is on record?
A: > 40 µM

Q: With `CCN1CCC[C@@H]1CNc1ccc2ncc(C#N)c(Nc3ccc(F)c(Cl)c3)c2c1` as the compound, how does the IC50 [1] read?
A: 7 µM
